Measurements reported in US20230167058A1, “GPX4 COMPOUNDS AND COMPOSITIONS AND METHODS OF TREATMENT USING SAME” (THE TRUSTEES OF COLUMBIA UNIVERSITY IN THE CITY OF NEW YORK, priority 2020, published 2023).
Read-outs that look alike come from different tables or passages of the source.

Experiments:
[1] = system: GPX4 protein level in HT-1080 cells; assay: Western blot GPX4 degradation study in HT-1080; type: cell-based, human; conditions: 1 μM RSL3, 1 μM ML162, 10 μM FIN56, 10 h, with 100 μM α-tocopherol
Method: For the GPX4 degradation study, HT-1080 cells were seeded at 800,000 per well in a 60-mm plate and allowed to adhere overnight. Cells were then treated with 100 μM α-tocopherol and either 1 μM RSL3, 1 μM ML162, 10 μM IKE, 10 μM FIN56, or vehicle for 10 h. Cells were harvested with trypsin (Invitrogen, 25200-114), pelleted, and lysed with RIPA buffer.
For both experiments, cell lysates were blotted and imaged as previously described (Yang et al. 2014). Antibodies used were GPX4 (Abcam, ab125066, 1:250 dilution), actin (Cell Signaling, D18C11, 1:3,000 dilution), and GAPDH (Santa Cruz, sc-47724, 1:10,000 dilution). Results were quantified using a LI-COR Odyssey CLx IR scanner and GraphPad Prism 7.

[2] = target: T1, GPX4 (Homo sapiens, UniProt P36969); assay: GPX4-specific enzymatic activity assay (LC-MS substrate/product, NADPH-coupled); type: biochemical
T1 sequence (P36969 1-170 isoform P36969-2): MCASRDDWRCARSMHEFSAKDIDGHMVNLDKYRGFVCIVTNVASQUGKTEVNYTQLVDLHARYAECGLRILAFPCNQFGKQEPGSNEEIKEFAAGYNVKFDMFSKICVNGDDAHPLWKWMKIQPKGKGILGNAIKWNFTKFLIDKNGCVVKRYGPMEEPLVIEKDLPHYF
From the text: (§1) These x-ray structures enabled further optimization of current inhibitors and the design of novel inhibitors targeting various binding sites on GPX4. Therefore, we applied a strategy of computer-facilitated design, based on MD simulation (Desmond) and Glide docking (Schrödinger Suite), and experimental high-throughput screening of a lead-optimized compound library of 10,000 compounds (FIGS. 6A-6E). All candidates were first evaluated by thermal denaturation assay and microscale thermophoresis (MST) to validate binding to GPX4 (Table 1). Surface plasmon resonance (SPR) and isothermal titration calorimetry (ITC) were then applied to precisely measure their binding kinetics and affinities, while ^1H-^15N heteronuclear single-quantum coherence (HSQC) NMR spectroscopy informed us of binding sites. We optimized two GPX4-specific activity assays to examine enzymatic inhibitory effects of hit compounds—LC-MS-based substrate/product monitoring and an NADPH-coupled assay. […] Some L880 analogues were also synthesized and tested (Table 2).

[3] = target: T2, GPX4^U46C (Homo sapiens, UniProt P36969, U73C); assay: 1H,15N-HSQC-NMR of 15N-labeled GPX4^U46C; type: binding; conditions: Table 1
T2 construct: His6 (N, cleaved yes); made in house; host or cells: E. coli BL21-Gold (DE3), M9 minimal medium with 15NH4Cl
T2 sequence (P36969 33-197 U73C): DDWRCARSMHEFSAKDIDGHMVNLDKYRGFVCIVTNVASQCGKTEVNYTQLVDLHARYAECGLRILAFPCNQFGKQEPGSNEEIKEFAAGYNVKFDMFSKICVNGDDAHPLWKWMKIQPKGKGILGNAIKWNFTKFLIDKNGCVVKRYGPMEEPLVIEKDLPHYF
Method: Uniformly ^15N-labeled GPX4^U46C protein with N-terminal His6 tag was prepared. The GPX4^U46C construct was expressed in E. coli BL21-Gold (DE3) cells (Stratagene) growing at 37° C. in M9 minimal medium supplemented with […] ampicillin, 2 mM MgSO4, […] CaCl2, 1× trace metals, 1×RPMI 1640 vitamin stock (Sigma-Aldrich, #R7256), […] biotin, […] thiamine hydrochloride, 4 g/L glucose, and 3 g/L ^15NH4Cl as the sole nitrogen source. The following induction, lysis, and protein purification was the same as for the non-isotope-labeled His-tagged GPX4^U46C described above, except the N-terminal His6 tag was removed by adding 5 U/mg thrombin before FPLC purification. The thrombin reaction was after a buffer exchange to remove imidazole, which otherwise would inhibit thrombin, and was allowed to proceed overnight at 4° C.
Then the protein solution was concentrated to 50 μM before testing. For HSQC of GPX4 with other inhibitors, 50 μM ^15N-labeled GPX4 was preincubated with 800 μM inhibitor to be tested for […] at room temperature in buffer (100 mM MES, 5 mM TCEP, pH 6.5). D20 (10%) was then added for the field frequency lock. The ^1H-^15N HSQC spectra were collected on Bruker Avance III 500 Ascend (500 MHz) spectrometers (Columbia University) at 298K. The ^1H carrier frequency was positioned at the water resonance. The ^15N carrier frequency was positioned at 115 ppm. The spectral width in the ^1H dimension was 7,500 Hz and the width in the ^15N dimension was 1,824.6 Hz. Suppression of water signal was accomplished using the WATERGATE sequence. Heteronuclear decoupling was accomplished using GARP decoupling scheme.

[4] = target: T3, GPX4 (Homo sapiens, UniProt P36969, U73C); assay: Microscale thermophoresis (MST) binding to GPX4
T3 sequence (P36969 33-197 U73C): T2 sequence (P36969 33-197 U73C)
From the text: as §1, with “Therefore,” for “These x-ray structures enabled further optimization of current inhibitors and the design of novel inhibitors targeting various binding sites on GPX4. Therefore,”

[5] = target: T3, GPX4; assay: Surface plasmon resonance (SPR); type: binding; conditions: Table 1
From the text: as §1

[6] = target: T2, GPX4^U46C; assay: Thermal shift assay (screen of LOC library); type: binding; conditions: Table 1
Method: To fully utilize the versatility shown by the […] site to accommodate structurally diverse compounds, we applied thermal shift assay to screen 9,719 compounds in the Lead-Optimized-Compound (LOC) library for in vitro binders of GPX4^U46C, which would shift the melting temperature of GPX4^U46C (|ΔTm|>2° C., FIG. 12D) (Kaplan et al. 2015).
Since the binding of small molecules may alter the thermostability of protein, we applied thermal shift assay to screen the LOC library, which determined binding of ligand from the change of the unfolding transition temperature (ΔTm) obtained in the presence of ligands relative to that obtained in the absence of ligands (Kaplan et al. 2015; Lo et al. 2004). For higher throughput purpose, we adapted the assay on 384-well PCR plate. With the assistance of Biomek Automated Liquid Handler (Beckman), 2 μl 10 mM stock solution (in 100% DMSO) of the each compound was transferred from 384-well library plates to 38 μl FPLC buffer (100 mM Tris pH 8.0, 300 mM NaCl, 3 mM TCEP) and mixed in each well of a 384-well mother plate. The compound solution was then dispensed, 12 μl per well, into three 384-well PCR plates. GPX4^U46C protein and Sypro orange were manually added to the plate, with the final concentrations of 5 μM and 5×, respectively, to make a volume of 20 μl per well right before thermal shift analysis of the specific plate. The thermal shift assay was performed on the ViiA 7 Real-Time PCR system (Thermo Fisher) with the thermal protocol: 25° for 15 s, Increase temp to 99° at a rate of 0.05°/sec, 99° for 15 sec. The fluorescence was recorded and analyzed by Protein Thermal Shift™ software. The mean |ΔTm| value for the biological triplicates were calculated and used for hit identification.

[7] = target: T2, GPX4^U46C; assay: Intact protein MALDI MS analysis, GPX4^U46C; type: binding; conditions: protein preincubated with excess inhibitor
Method: GPX4^U46C or GPX4^AllCys(−)-A46C protein was pre-incubated with DMSO control or the inhibitor to be tested prior to MALDI MS analysis: 50 μM GPX4 protein was incubated with 500 μM inhibitors in FPLC buffer (100 mM Tris pH 8.0, 300 mM NaCl, and 3 mM TCEP) with 5% DMSO at RT for 1 hour before transferring to 4° C. overnight.
1 μl of the ligand-free protein (pre-incubated with DMSO) or protein-inhibitor complex (pre-incubated with the inhibitor to be tested) was mixed with 9 μl of 10 mg/ml sinapinic acid in the matrix solution (70:30 water/acetonitrile, with 0.1% TFA). 1.0 μl of the final mix was deposited onto the target carrier and allowed to air dry. MALDI spectrum was recorded using Bruker ultrafleXtreme MALDI-TOF instrument. The range of m/z detection and suppression was adjusted to accommodate the molecular weight of target protein. 2000 Hz and 50% intensity was applied for the laser setting. For each sample, five cumulative spectra were collected and the sum was recorded for analysis. All MALDI spectra of protein-inhibitor complex were compared with ligand-free protein to determine the mass shift. Mass shifts were aligned with the mass of potential staying group of each inhibitor to conclude covalent binding.

[8] = target: T2, GPX4^U46C; assay: Co-crystal structure of GPX4^U46C with inhibitor; type: binding
Method: GPX4^U46C was pre-incubated with the covalent inhibitors before crystallization using the following specifically optimized condition.
RSL3 and ML162 condition: 50 μM GPX4^U46C incubated with 150 μM RSL3 or ML162 in the reaction buffer (20 mM Tris pH 9.0, 100 mM NaCl, 3 mM TCEP, 1.5% DMSO) at 15° C. for 1 hour before transferring to 4° C. overnight. CDS9 condition: 25 μM GPX4^U46C incubated with 2 mM CDS9 in the reaction buffer (100 mM Tris pH 9.0, 300 mM NaCl, 1 mM TCEP, 2% DMSO) at 37° C. for 2 hours before transferring to 4° C. overnight. TMT10 condition: 25 μM GPX4^U46C incubated with 2 mM TMT10 in the reaction buffer (100 mM Tris pH 9.0, 300 mM NaCl, 2% glycerol, 2% DMSO) at 37° C. for 4 hours before transferring to 4° C. overnight. MAC-5576 condition: 50 μM GPX4^U46C protein was incubated with 500 μM MAC-5576 in the reaction buffer (100 mM Tris pH 9.0, 300 mM NaCl, and 3 mM TCEP, 5% DMSO) at RT for 1 hour before transferring to 4° C. overnight.
After confirmation of covalent binding using intact protein MALDI MS analysis, the protein-inhibitor complex were exchanged into crystallization buffer (10 mM Tris pH 8.0, 5 mM TCEP) and concentrated to 5 mg/ml.

SMILES	degradation of endogenous GPX4 [1]	GPX4 enzymatic assay [2]	Binding site [3]	HSQC assay [3]	MST ([4]; Table 1)	Kd ([4]; Table 1, read-out: MST Kd) [µM]	SPR [5]	Thermal shift [6]	covalent binding to GPX4^U46C by intact protein MALDI MS [7]	binding site in co-crystal structure [8]	Kd [4] [µM]
O=S(=O)(NC1CCCCC1)c1ccc2c(c1)C(=NO)c1cc(S(=O)(=O)NC3CCCCC3)ccc1-2 [FIN56]	significantly promoted degradation of GPX4	–	–	–	–	–	–	–	–	–	–
CN(C)c1ccc(/C=C2\SC(N3CCN(CCO)CC3)=NC2=O)cc1 [LOC957]	–	positive	Allosteric Site 2	positive	positive	6.8	positive	positive	–	–	–
O=C(Oc1cncc(Cl)c1)c1cccs1 [MAC-5576]	–	–	–	–	–	–	–	–	able to covalently modify GPX4	bound to the cys66 allosteric site	–
CC(C)(C(=O)[O][Sn]([CH3])([CH3])[CH3])N1C(=O)c2ccccc2C1=O [LOC880]	–	positive	Allosteric Site 2	positive	positive	–	positive	positive	–	–	6.7
CN(C)C(=O)c1ccc2c(c1)NC(=O)C1CCCN21 (stereo not drawn) [LOC4873]	–	positive	Allosteric Site 2	positive	positive	40	positive	positive	–	–	–
